Data as given in PubChem BioAssay (NCI).
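Dose response: 5 concentrations. Exposure: 48 h. Format: 96-well plates. Endpoint: linear interpolation; highest concentration if not reached. At the GI50, growth is halved. TGI is the concentration that stops growth completely.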

How the values were obtained:
Assay in all cases: DTP human tumour cell line panel, 48 h
[1] = test system: HCT-116 colon
[2] = test system: RXF 393 renal
[3] = test system: ACHN renal
[4] = test system: UACC-257 melanoma
[5] = test system: A549 NSCLC
[6] = test system: EKVX NSCLC
[7] = test system: HL-60(TB) leukemia
[8] = test system: IGROV1 ovarian
[9] = test system: MALME-3M melanoma
[10] = test system: SK-MEL-2 melanoma

Row | Compound | TGI [1] | TGI [2] | TGI [3] | TGI [4] | TGI [5] | TGI [6] | TGI [7] | TGI [8] | TGI [9] | TGI [10] | GI50 [1] | GI50 [2] | GI50 [6] | GI50 [8] | GI50 [10] | GI50 [3] | GI50 [9]
1 | c1ccc(N=c2nc(N3CCOCC3)ss2)cc1 | 27.7 µM | 31.3 µM | 30.9 µM | 29.8 µM | > 100 µM | 36.4 µM | 47.3 µM | 52.7 µM | 28.8 µM | 43.4 µM |  |  |  |  |  |  | 
2 | O=C(COc1ccc(OCC(=O)NNC2=NC(c3cc(F)c(Cl)cc3Cl)CS2)c(Cl)c1)NNC1=NC(c2cc(F)c(Cl)cc2Cl)CS1 (configuration not stated) | > 100 µM | 60.9 µM | > 100 µM | > 100 µM | 28.6 µM | 77.3 µM | > 100 µM | > 100 µM | > 100 µM | > 100 µM |  |  |  |  |  |  | 
3 | CC(=O)OCC1=C(C(=O)O)C(c2ccc3c(c2)OCO3)c2cc3c(cc2O1)OCO3 (configuration not stated) | > 100 µM | > 100 µM | > 100 µM | > 100 µM | > 100 µM | > 100 µM | > 100 µM | > 100 µM | > 100 µM |  |  |  |  |  |  |  | 
4 | NC1(C(=O)O)CCc2ccc(N(CCCl)CCCl)cc2C1 (configuration not stated) | 1.69 µM | > 100 µM |  | > 100 µM | > 100 µM | > 100 µM | > 100 µM | > 100 µM | 2.2 µM | > 100 µM |  |  |  |  |  |  | 
5 | CCOc1ccc(/C(C=O)=C(\Cl)c2ccc(OC)c(OC)c2)cc1 | > 100 µM |  | > 100 µM |  |  | > 100 µM | > 100 µM | > 100 µM | > 100 µM | > 100 µM |  |  |  |  |  |  | 
6 | Cc1cc(C)nc(SCC(=O)OC2CC(C)CCC2C(C)C)n1 (configuration not stated) | 47 µM | 32 µM | 38.6 µM | 41.7 µM | 63.4 µM | 39.3 µM | 44.2 µM | 65.6 µM | 41.1 µM | 41.9 µM |  |  |  |  |  |  | 
7 | Cc1cc2c(C(C)C)c(O)c(O)c(C=NCCO)c2c(O)c1-c1c(C)cc2c(C(C)C)c(O)c(O)c(C=NCCO)c2c1O | 3.03 µM | 9.51 µM | 12.4 µM | 4.98 µM | 2.98 µM | 7.3 µM | 4.97 µM | 6.38 µM | 9.36 µM | 14.6 µM |  |  |  |  |  |  | 
8 | C=C1C(=O)O[C@@H]2[C@H]1CCC(C)=C1C=CC(=O)[C@]12C | 26.7 µM | 29.8 µM | 30 µM | 27.1 µM | 73 µM | 31.1 µM | 14 µM | 46.7 µM |  | 79.4 µM |  |  |  |  |  |  | 
9 | Clc1ccc(CNc2nc(Cl)c3[nH]cnc3n2)cc1Cl | 60.7 µM | > 100 µM | > 100 µM | 48.9 µM | > 100 µM | > 100 µM |  | > 100 µM | > 100 µM | 77.9 µM |  |  |  |  |  |  | 
10 | COC(=O)[C@@]1(Cc2ccc(O)cc2)C[C@@H]2Cc3ccccc3N2N1 | > 100 µM |  | > 100 µM | 71.7 µM | > 100 µM | > 100 µM |  | > 100 µM | > 100 µM | 92.8 µM |  |  |  |  |  |  | 
11 | Fc1ccc(-c2nn3c(-c4cc(C(F)(F)F)cc(C(F)(F)F)c4)nnc3s2)cc1 | > 50 µM | > 50 µM |  |  |  | > 50 µM |  | > 50 µM |  | 4.75 µM | 1.7 µM | 1.78 µM | 1.75 µM | 1.66 µM | 1.64 µM |  | 
12 | Cc1ccc(C2N=C(N)NC3=C2CCOc2c3ccc3ccccc23)cc1 (configuration not stated) | 12.3 µM | 97.9 µM | > 73.7 µM | > 65.7 µM | > 64.6 µM | > 55.1 µM | 19 µM | > 100 µM | > 40.6 µM | > 100 µM |  |  |  | 44.6 µM |  | 16.6 µM | 4.7 µM
13 | Cc1c(-c2ccccc2)c(C#N)c2nnn(C3CCCCC3)c(=O)n12 | > 100 µM | 71.7 µM | > 100 µM | > 100 µM | > 100 µM | > 100 µM | > 100 µM | > 100 µM | > 100 µM | > 100 µM |  |  |  |  |  |  | 
14 | O=C(Nc1c(C(=O)NC2CCCCC2)[nH]c(=O)[nH]c1=O)c1ccc(Cl)cc1 | > 100 µM | > 100 µM | > 100 µM |  | > 100 µM | > 100 µM | > 100 µM | > 100 µM | > 100 µM |  |  |  |  |  |  |  | 
